Experiment: ABTS-assay, inhibition of radical formation
Type: biochemical
Conditions: for IC50: absorption at 734 nm, mean value from at least 2 independent tests
Method: By means of the ABTS-assay the anti-oxidative capacity of 4-hydroxyacetophenone and alpha-tocopherol was compared. 2,2′-azino bis-(3-ethylbenzothiazoline 6-sulfonic acid) (ABTS) was transformed by potassium persulfate into the blue-green radical cation ABTS•^+. Through the addition of 4-hydroxyacetophenone and alpha-tocopherol the radical cations were reduced and discoloration was observed, which was determined photometrically by Absorption at 734 nm. The inhibition of the radical formation of the test substance is calculated by the following formula:
[formula] Wherein the abbreviations have the following meanings: • Atest substance: Absorption of the wells with test substance including 4-hydroxyacetophenone and alpha-tocopherol • Acontrol: Absorption of the wells without test substance
From the inhibition of the radical formation [%] in a series of dilutions of tested samples the IC50 was calculated. This is the concentration at which the radical formation is inhibited by 50%.

| SMILES | fold higher IC50 value than alpha-tocopherol [fold] | IC50 [µM] | antioxidant activity compared with alpha-tocopherol (in words) |
| --- | --- | --- | --- |
| CC(=O)c1ccc(O)cc1 [4-hydroxyacetophenone] | 10 | 262 | much weaker antioxidant activity |
| Cc1c(C)c2c(c(C)c1O)CC[C@@](C)(CCC[C@H](C)CCC[C@H](C)CCCC(C)C)O2 [alpha-tocopherol, reference compound] | – | 26.8 | – |

From patent publication US11540987B2, “Composition with stabilized taste and odor (II)” (SYMRISE AG, priority 2015, dated 2023)
